# Experimental data taken from patent publication US12691143B2, “Method for treating cancer” (priority 2020, dated 2026).
# Entries after “also recorded” stand apart in the source; their conditions may differ.
# Experiments:
# Format in all cases: cell-based
# [1] = system: MDA-MB-468 breast cancer cell line (NER deficient, ERCC4 silenced); experiment: In vitro drug sensitivity assay, parental vs ERCC4-complemented line; conditions: NER-deficient parental MDA-MB-468 compared with ERCC4-complemented counterpart
# From the text: (§1) Bladder cancer cell lines were purchased from ATCC. The KE1 bladder cancer cell line is a derivative of KU19-19 in which an ERCC2 T484 mutation has been introduced by CRISPR/Cas9 gene editing as previously described (6). The MDA-MB-468 breast cancer cell line and its ERCC4-complemented derivative have been previously described (35). Small interfering RNAs (siRNAs) targeting specific NER genes as well as a non-targeting siRNA (siNTC) were purchased from Integrated DNA Technologies Inc. (Coralville, IA, USA; see Table 9 for sequences). Cells were seeded in 6-well plates and grown to 50% confluency. A transfection mixture containing siRNA diluted to a final concentration of 30 nM in Opti-MEM media containing Lipofectamine 3000 (Life Technologies; Carlsbad, CA) was then added to cells. After 48 hours, cells were trypsinized and re-aliquoted to separate wells and transfected with 15 nM siRNA for 24 hours immediately prior to viability assays performed as described below. […]
# (§2) Cells were seeded in either 96-well (5,000 cells/well) or 24-well (20,000 cells/well) plates. […] Plates were scanned using a luminescence microplate reader (BioTek). […]
# [2] = system: SW1710 bladder cancer cell line; experiment: In vitro drug sensitivity assay / crystal violet staining; conditions: SW1710 compared with other bladder cancer cell lines
# Experimental: Cells were seeded in either 96-well (5,000 cells/well) or 24-well (20,000 cells/well) plates. The following day, irofulven and cisplatin stock solutions were serially diluted in media and added to cells. After 48 to 72 hours, media was removed and CellTiter-Glo® reagent (Promega; Madison, WI) was added. Plates were scanned using a luminescence microplate reader (BioTek). Survival at each drug concentration was plotted as a percentage of survival in drug-free media with error bars representing the standard deviation of at least three experiments.
# For crystal violet imaging experiments, cells were seeded in 6-well plates (100,000-200,000 cells/well) with 15 nM siRNA transfection mixture (as detailed above). At 24 hours, fresh media containing irofulven or PBS was added and the cells were incubated for an additional 72 hours. Cells were then fixed in formalin solution for 30 minutes and stained with crystal violet prepared in equal volumes of methanol and water. Excess crystal violet was removed by washing with PBS, and plates were then dried and imaged.
# [3] = system: SC14 (SW1710 derivative with ERCC2 P463L mutation); experiment: In vitro drug sensitivity assay; conditions: ERCC2-mutant SC14 line compared with SW1710
# From the text: as §1, §2
structure (smiles),measurement,setting,value
CC1=C(CO)C2=C(C)C3(CC3)[C@@](C)(O)C(=O)C2=C1 [irofulven],irofulven sensitivity,[1],significantly more sensitive; also recorded: dramatically higher irofulven sensitivity
same,irofulven sensitivity,[2],much higher sensitivity
same,drug sensitivity,[3],significantly increased sensitivity
